The source of these data is patent US6974814B2, “Neuropharmacological treatment of sleep-related breathing disorders” (The Board of Trustees of the University of Illinois, priority 1999, dated 2005).

One series concerns apnea. Conditions: animal model of sleep apnea; cited from earlier work.
Series [1] deals with intertrigeminal region of the brainstem. To be noted: administration into the brainstem; cited from earlier work.
Another series relates to sleep apnea. To be noted: cited from earlier work; for effect in individuals with central apnea: central apneas.
[2] abbreviates: individuals with obstructive sleep apnea.

Procedure for spontaneous apneas: Adult, male Sprague-Dawley rats (Sasco-King, Wilmington, Mass.; usually 8 per test group; 300 g) are maintained on a 12-hour light (08:00–20:00 hour)/12-hour dark (20:00–08:00 hour) cycle for one week, housed in individual cages and given ad libitum access to food and water. Following the one week of acclimatization, animals are subjected to the following surgical procedures.
Acclimatized animals are anesthetized for the implantation of cortical electrodes for electroencephalogram (EEG) recording and neck muscle electrodes for electromyogram (EMG) recording using a mixture of ketamine (Vedco, Inc., St. Joseph, Mo.; 100 mg/ml) and acetylpromazine (Vedco, Inc., St. Joseph, Mo.; 10 mg/ml; 4:1, volume/volume) at a volume of 1 ml/kg body weight. The surface of the skull is exposed surgically and cleaned with a 20% solution of hydrogen peroxide followed by a solution of 95% isopropyl alcohol. Next, a dental preparation of sodium fluoride (Flura-GEL®, Saslow Dental, Mt. Prospect, Ill.) is applied to harden the skull above the parietal cortex and allowed to remain in place for 5 minutes. The fluoride mixture is then removed from the skull above the parietal cortex. The EEG electrodes consisting of four stainless steel machine screws, having leads attached thereto, are threaded into the skull to rest on the dura over the parietal cortex. A thin layer of Justi® resin cement (Saslow Dental, Mt. Prospect, Ill.) is applied to cover the screw heads (of screws implanted in the skull) and surrounding skull to further promote the adhesion of the implant. EMG electrodes consisting of two ball-shaped wires are inserted into the bilateral-neck musculature. All leads (i.e., EEG and EMG leads) are soldered to a miniature connector (39F1401, Newark Electronics, Schaumburg, Ill.). Lastly, the entire assembly is fixed to the skull with dental cement.
After surgery, all animals are allowed to recover for one week before being subjected to another surgery that involved implantation of a radiotelemetry transmitter (TA11-PXT, Data Sciences International, St. Paul, Minn.) for monitoring blood pressure (BP) and heart period (HP), estimated as pulse interval. After the animals are anesthetized (as described above), the hair from the subxiphoid space to the pelvis is removed. The entire area is scrubbed with iodine and rinsed with alcohol and saline. A 4–6 cm midline abdominal incision is made to allow good visualization of the area from the bifurcation of the aorta to the renal arteries. A retractor is used to expose the contents of the abdomen and the intestine is held back using saline moistened gauze sponges. […]
Physiological parameters (see below) from each animal are recorded on numerous occasions in random order, with recordings for an individual animal separated by at least 3 days.

Turning to `Nc1ncnc2c1ncn2[C@@H]1O[C@H](CO)[C@@H](O)[C@H]1O` [adenosine], in the series with apnea, the effect on apnea result is recorded as “somewhat effective in reducing apnea”.
For the molecule `N[C@@H](CCC(=O)O)C(=O)O` [glutamate], the “effect on breathing (reflex apneas)” value in series [1] was “provoked reflex apneas”.
`CNCCCC1c2ccccc2C=Cc2ccccc21` [Protriptyline]: the “effect in individuals with obstructive sleep apnea (OSAS)” value (from here on “effect in individuals … (OSAS)”) in the series with sleep apnea is reported as “variable results”. The side effects entry with sleep apnea (several small trials in OSAS) was “frequent and significant side effects”.
Consider `Cn1c(=O)c2[nH]cnc2n(C)c1=O` [theophylline], for which, in the series with sleep apnea, the “effect in individuals with central apnea” value is “may benefit” and the “effect in individuals … (OSAS)” value was “of no use”.
Turning to `CCN1CC(CCN2CCOCC2)C(c2ccccc2)(c2ccccc2)C1=O` (stereo not shown) [doxapram], in the series with sleep apnea (setting [2]), the “average arterial oxygen saturation” value is “did not alter” and the length of apneas result is recorded as “decrease the length of apneas”.
Take `C=CCN1CC[C@]23c4c5ccc(O)c4O[C@H]2C(=O)CC[C@@]3(O)[C@H]1C5` [naloxone]: in the series on sleep apnea, the “effect in individuals … (OSAS)” value is recorded as “only slightly helpful”.
As for `Nc1nc2ccc(OC(F)(F)F)cc2s1` [riluzole], in the series on spontaneous apneas (NREM sleep, 4.0 mg/kg intraperitoneal 15 min before 6 h recording, vs saline, p=0.05), the “average decrease in apnea expression (apneas per hour of NREM sleep)” value was found to be 31%. Further, in the series with spontaneous apneas (NREM sleep, 4.0 mg/kg intraperitoneal, vs saline), the “animals with a decrease in apnea expression” value is 5 of 7. In addition, the “average decrease in apnea expression (apneas per hour of REM sleep)” value with spontaneous apneas (REM sleep, 4.0 mg/kg intraperitoneal 15 min before 6 h recording, vs saline, p=0.11) came out at 27%. Further, in the series with spontaneous apneas (both NREM and REM sleep), the “overall effect on production of spontaneous sleep apneas” value is on record as “physiologically significant decrease”.
As for medroxyprogesterone, the “effect in individuals … (OSAS)” value in the series with sleep apnea is on record as “no consistent benefit”.
Consider `CC(=O)Nc1nnc(S(N)(=O)=O)s1` [acetazolamide], for which, in the series with sleep apnea, the “effect in individuals with central apnea” value is “variable improvement” and the “effect in individuals … (OSAS)” value is reported as “increase in obstructive apneas”.
